Results taken from patent US4569943A, “Physiologically active substance P-23924, its production and use” (Takeda Chemical Industries, Ltd., priority 1982, dated 1986).

Experiments:
[1] = biological target: T1, Protocollagen prolyl hydroxylase (Gallus gallus, UniProt P16924); assay: Protocollagen prolyl hydroxylase inhibiting activity (method of R. E. Rhoads, substrate (Pro-Pro-Gly)5.4H2O); assay type: biochemical, chick embryo; conditions: for IC50: 100 μg (as protein) of partially purified enzyme preparation from chick embryo, read-out: Concentration of P-23924 required for a 50% inhibition; for inhibition at 12.5 µM: 12.5 μM compound, 100 μg enzyme
T1 construct: partially purified enzyme preparation derived from chick embryo; from tissue; host or cells: chick embryo (partially purified enzyme preparation)
T1 sequence (P16924 1-516): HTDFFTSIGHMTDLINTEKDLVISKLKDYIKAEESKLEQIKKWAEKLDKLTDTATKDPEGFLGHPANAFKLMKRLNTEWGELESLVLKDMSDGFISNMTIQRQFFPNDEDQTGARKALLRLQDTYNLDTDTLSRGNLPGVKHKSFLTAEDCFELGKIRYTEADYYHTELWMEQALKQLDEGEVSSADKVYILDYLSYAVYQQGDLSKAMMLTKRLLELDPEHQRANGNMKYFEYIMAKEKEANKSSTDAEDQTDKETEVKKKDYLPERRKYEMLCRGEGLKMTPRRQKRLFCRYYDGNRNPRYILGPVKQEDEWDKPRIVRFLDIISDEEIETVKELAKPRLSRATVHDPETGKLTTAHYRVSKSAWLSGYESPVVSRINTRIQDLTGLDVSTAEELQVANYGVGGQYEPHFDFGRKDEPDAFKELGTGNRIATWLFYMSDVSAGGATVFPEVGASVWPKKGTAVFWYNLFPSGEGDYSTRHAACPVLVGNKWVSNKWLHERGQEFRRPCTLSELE
T1 sequence (P09102 23-515 partner): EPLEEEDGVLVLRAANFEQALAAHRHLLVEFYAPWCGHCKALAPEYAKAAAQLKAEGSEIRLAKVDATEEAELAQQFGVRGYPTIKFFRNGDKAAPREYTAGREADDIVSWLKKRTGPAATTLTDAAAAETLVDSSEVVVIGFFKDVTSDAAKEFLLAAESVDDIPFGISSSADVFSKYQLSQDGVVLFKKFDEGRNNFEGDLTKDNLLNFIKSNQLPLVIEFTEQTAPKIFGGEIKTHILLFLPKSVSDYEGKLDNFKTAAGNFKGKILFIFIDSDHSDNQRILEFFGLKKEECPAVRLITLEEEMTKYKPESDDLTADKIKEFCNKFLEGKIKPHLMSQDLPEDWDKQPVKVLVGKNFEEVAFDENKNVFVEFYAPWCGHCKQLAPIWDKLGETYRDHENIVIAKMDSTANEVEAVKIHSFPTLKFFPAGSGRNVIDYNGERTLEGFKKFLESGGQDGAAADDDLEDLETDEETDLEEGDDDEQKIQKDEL
Procedure: (a) Protocollagen prolyl hydroxylase inhibiting activity: This inhibitory activity was assayed by the method of R. E. Rhoads [Methods in Enzymology XVII B, 306 (1971)] using a partially purified enzyme preparation derived from chick embryo in accordance with the methods of K. I. Kivirriko et al and J. Halme et al. [Journal of Biological Chemistry 242, 4007 (1967) and Biochimica et Biophysica Acta 198, 460 (1967)] and, as the substrate, (Pro-Pro-Gly)5.4H2 O [manufactured by Tanpakushitsu Kenkyu Shoreikai (Protein Research Foundation Society), Osaka, Japan]. The concentrations of P-23924 required for a 50% inhibition of 100 μg (as protein) of said partially purified enzyme preparation were as follows.
On the other hand, by a similar procedure as above, the protocollagen prolyl hydroxylase inhibiting activities on the compounds of P-23924 AR, BR, CR and DR are measured.

[2] = tested on: collagen biosynthesis (uterus); assay: Collagen biosynthesis suppressant activity in uterus of estradiol-17β treated rats (method of T. Ishimaru et al); assay type: in vivo, SD rats; conditions: for Body weight of rats / Collagen content of uterus / Total protein content of uterus: groups of 10; for % Inhibition: Non-collagenous protein: total protein content - collagen
Text: (b) Collagen biosynthesis suppressant activity: In accordance with the method of T. Ishimaru et al [Biochemical Pharmacology 31, 915 (1982)], P-23924 was intraperitoneally administered to SD rats (females, 3 weeks old) once daily for 6 consecutive days and the collagen content and non-collagenous protein content of the uterus were compared with those of control animals. […] I | said tests, rats were used in groups of 10 individuals.

[3] = Acute toxicity [LD50] by the intraperitoneal route; conditions: rat, in vivo, ip, rats
Text: The acute toxicity [LD50 ] values of P-23924 in rats by the intraperitoneal route are given below.

Solubility = assay type: physicochemical
[4] = Description (acidity, fat solubility); assay type: physicochemical
[5] = biological target: T1, Protocollagen prolyl hydroxylase; assay: Protocollagen prolyl hydroxylase inhibiting activity (method of R. E. Rhoads, substrate (Pro-Pro-Gly)5.4H2O); assay type: biochemical, chick embryo; conditions: 3.13 μM compound, 20 μg enzyme
[6] = 1 mg/kg i.p. once daily 6 days + Estradiol-17β (5 μg), P < 0.05 (B: P < 0.02, C: P < 0.01)
[7] = 1 mg/kg i.p. once daily 6 days + Estradiol-17β (5 μg)
[8] = in acetone, chloroform, n-hexane and petroleum ether
[9] = in dimethyl sulfoxide, dimethylformamide, pyridine and 5% aqueous sodium hydrogen carbonate
[10] = in methanol, dioxane and acetic acid
[11] = in dimethylsulfoxide, pyridine, ethyl acetate, chloroform, dioxan
[12] = in chloroform, n-hexane and petroleum ether
[13] = 50 mg/kg i.p. once daily 6 days + Estradiol-17β (5 μg)

Compound: COC1=C(CO)C(=O)c2c(cc(OC)c(CSCC(NC(C)=O)C(=O)O)c2O)C1=O (stereo not shown) [P-23924F]
- IC50 [1]: 21 µM
- % Inhibition: Collagen [2, 6]: 38%
- Body weight of rats [2, 7]: 71 ± 3 g
- Collagen content of uterus [2, 7]: 2.47 ± 0.57 mg
- Total protein content of uterus [2, 7]: 15.20 ± 1.53 mg
- % Inhibition: Non-collagenous protein [2, 7]: 15%
- LD50 [3]: 50 to 100 mg/kg
- Solubility (Solubility; [8]): slightly soluble or insoluble
- Solubility (Solubility; [9]): easily soluble
- Solubility (Solubility; [10]): soluble
- Solubility (Solubility; in water): slightly soluble or insoluble
- Description [4]: acidic and fat-soluble

Compound: COC1=C(C)C(=O)c2c(cc(O)c(C)c2O)C1=O [P-23924 DR]
- inhibition at 12.5 µM [1]: 20%
- Solubility (Solubility; [11]): readily or easily soluble
- Solubility (Solubility; in n-hexane, petroleum ether): slightly soluble or insoluble
- Solubility (Solubility; in water): slightly soluble or insoluble
- inhibition at 3.13 µM [5]: 33%

Compound: COC1=CC(=O)c2c(cc(OC)c(CSCC(NC(C)=O)C(=O)O)c2O)C1=O (stereo not shown) [P-23924C]
- IC50 [1]: 57 µM
- % Inhibition: Collagen [2, 6]: 61%
- Body weight of rats [2, 7]: 73 ± 6 g
- Collagen content of uterus [2, 7]: 2.19 ± 0.49 mg
- Total protein content of uterus [2, 7]: 14.01 ± 1.51 mg
- % Inhibition: Non-collagenous protein [2, 7]: 30%
- LD50 [3]: 100 to 200 mg/kg
- Solubility (Solubility; [12]): slightly soluble or insoluble
- Solubility (Solubility; [9]): easily soluble
- Solubility (Solubility; in methanol, dioxane, acetone and acetic acid): soluble
- Solubility (Solubility; in water): slightly soluble or insoluble
- Description [4]: acidic and fat-soluble

Compound: COc1cc2c(c(O)c1CSCC(NC(C)=O)C(=O)O)C(=O)C(C)=CC2=O (stereo not shown) [P-23924A]
- IC50 [1]: 67 µM
- % Inhibition: Collagen [2, 6]: 33%
- Body weight of rats [2, 7]: 73 ± 3 g
- Collagen content of uterus [2, 7]: 2.53 ± 0.35 mg
- Total protein content of uterus [2, 7]: 15.67 ± 1.63 mg
- % Inhibition: Non-collagenous protein [2, 7]: 10%
- LD50 [3]: 100 to 200 mg/kg
- Solubility (Solubility; [8]): slightly soluble or insoluble
- Solubility (Solubility; [9]): easily soluble
- Solubility (Solubility; [10]): soluble
- Solubility (Solubility; in water): slightly soluble or insoluble
- Description [4]: acidic and fat-soluble

Compound: COC1=C(C)C(=O)c2c(cc(OC)c(C)c2O)C1=O [P-23924 BR]
- inhibition at 12.5 µM [1]: 22%
- Solubility (Solubility; [11]): readily or easily soluble
- Solubility (Solubility; in n-hexane, petroleum ether): slightly soluble or insoluble
- Solubility (Solubility; in water): slightly soluble or insoluble
- inhibition at 3.13 µM [5]: 26%

Compound: COc1cc2c(c(O)c1C)C(=O)C(C)=CC2=O [P-23924 AR]
- inhibition at 12.5 µM [1]: 26%
- Solubility (Solubility; [11]): readily or easily soluble
- Solubility (Solubility; in n-hexane, petroleum ether): slightly soluble or insoluble
- Solubility (Solubility; in water): slightly soluble or insoluble
- inhibition at 3.13 µM [5]: 37%

Compound: COc1cc2c(c(O)c1CSCC(NC(C)=O)C(=O)O)C(=O)C(CO)=CC2=O (stereo not shown) [P-23924E]
- IC50 [1]: 21 µM
- % Inhibition: Collagen [2, 6]: 34%
- Body weight of rats [2, 7]: 72 ± 4 g
- Collagen content of uterus [2, 7]: 2.52 ± 0.36 mg
- Total protein content of uterus [2, 7]: 15.73 ± 1.59 mg
- % Inhibition: Non-collagenous protein [2, 7]: 9%
- LD50 [3]: ~50 mg/kg
- Solubility (Solubility; [12]): slightly soluble or insoluble
- Solubility (Solubility; in dimethyl sulfoxide, dimethylformamide, pyridine, 5% aqueous sodium hydrogen carbonate and methanol): easily soluble
- Solubility (Solubility; in dioxane and acetic acid): soluble
- Solubility (Solubility; in water): slightly soluble or insoluble
- Description [4]: acidic and fat-soluble

Compound: COC1=C(C)C(=O)c2c(cc(O)c(CSCC(NC(C)=O)C(=O)O)c2O)C1=O (stereo not shown) [P-23924D]
- IC50 [1]: 270 µM
- % Inhibition: Collagen ([2]; 50 mg/kg i.p. once daily 6 days + Estradiol-17β (5 μg), P < 0.05): 32%
- Body weight of rats [2, 13]: 72 ± 3 g
- Collagen content of uterus [2, 13]: 2.55 ± 0.30 mg
- Total protein content of uterus [2, 13]: 15.63 ± 1.43 mg
- % Inhibition: Non-collagenous protein [2, 13]: 11%
- LD50 [3]: > 400 mg/kg
- Solubility (Solubility; [8]): slightly soluble or insoluble
- Solubility (Solubility; [9]): easily soluble
- Solubility (Solubility; [10]): soluble
- Solubility (Solubility; in water): slightly soluble or insoluble
- Description [4]: acidic and fat-soluble

Compound: COC1=C(C)C(=O)c2c(cc(OC)c(CSCC(NC(C)=O)C(=O)O)c2O)C1=O (stereo not shown) [P-23924B]
- IC50 [1]: 95 µM
- % Inhibition: Collagen [2, 6]: 46%
- Body weight of rats [2, 7]: 70 ± 5 g
- Collagen content of uterus [2, 7]: 2.37 ± 0.43 mg
- % Inhibition: Non-collagenous protein [2, 7]: 19%
- LD50 [3]: 50 to 100 mg/kg
- Solubility (Solubility; [8]): slightly soluble or insoluble
- Solubility (Solubility; [9]): easily soluble
- Solubility (Solubility; [10]): soluble
- Solubility (Solubility; in water): slightly soluble or insoluble
- Description [4]: acidic and fat-soluble

Compound: COC1=CC(=O)c2c(cc(OC)c(C)c2O)C1=O [P-23924 CR]
- inhibition at 12.5 µM [1]: 33%
- Solubility (Solubility; [11]): readily or easily soluble
- Solubility (Solubility; in n-hexane, petroleum ether): slightly soluble or insoluble
- Solubility (Solubility; in water): slightly soluble or insoluble
- inhibition at 3.13 µM [5]: 40%
